Legend:
[1] = biological target: T1, Nuclear receptor ROR-gamma (Homo sapiens, UniProt P51449)
T1 sequence (P51449 whole entry): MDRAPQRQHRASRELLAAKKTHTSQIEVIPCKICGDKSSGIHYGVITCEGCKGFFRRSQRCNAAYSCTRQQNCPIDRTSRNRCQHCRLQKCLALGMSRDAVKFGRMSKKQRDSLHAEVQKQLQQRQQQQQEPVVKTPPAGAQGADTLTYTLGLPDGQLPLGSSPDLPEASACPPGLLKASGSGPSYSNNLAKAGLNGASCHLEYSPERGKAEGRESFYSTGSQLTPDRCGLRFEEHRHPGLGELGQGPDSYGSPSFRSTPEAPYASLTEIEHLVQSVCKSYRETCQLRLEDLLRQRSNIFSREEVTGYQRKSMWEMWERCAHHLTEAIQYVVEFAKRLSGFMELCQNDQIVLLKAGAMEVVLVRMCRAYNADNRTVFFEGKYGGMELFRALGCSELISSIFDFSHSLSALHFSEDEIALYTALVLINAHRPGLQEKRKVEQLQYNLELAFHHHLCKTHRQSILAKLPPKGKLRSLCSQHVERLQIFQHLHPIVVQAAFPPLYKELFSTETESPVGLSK
Description: Inverse agonist activity at GAL4 DBD-fused RORgammat LBD (unknown origin) expressed in HG5LN cells after 18 hrs by luciferase reporter gene assay

[2] = biological target: T2, Retinoic acid receptor gamma (Homo sapiens, UniProt P13631)
T2 sequence (P13631 whole entry): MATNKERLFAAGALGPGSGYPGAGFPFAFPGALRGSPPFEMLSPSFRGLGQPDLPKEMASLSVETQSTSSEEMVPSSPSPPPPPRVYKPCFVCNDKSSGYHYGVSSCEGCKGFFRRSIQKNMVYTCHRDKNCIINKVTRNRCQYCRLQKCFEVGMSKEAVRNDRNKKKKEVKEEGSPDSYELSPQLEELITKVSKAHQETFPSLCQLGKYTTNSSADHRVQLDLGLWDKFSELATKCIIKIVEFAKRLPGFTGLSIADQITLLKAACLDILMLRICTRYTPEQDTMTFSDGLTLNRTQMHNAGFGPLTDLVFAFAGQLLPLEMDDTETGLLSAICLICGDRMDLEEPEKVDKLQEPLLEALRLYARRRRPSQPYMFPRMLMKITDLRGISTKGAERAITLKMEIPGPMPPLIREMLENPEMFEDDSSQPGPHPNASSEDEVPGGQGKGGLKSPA
Description: Inverse agonist activity at GAL4 DBD-fused RARgamma LBD (unknown origin) expressed in human HG5LN cells after 18 hrs by luciferase reporter gene assay

physchem = conditions: buffer, pH 6.5
in vitro = conditions: human, neonatal keratinocytes
Description: Photocytotoxicity against human neonatal keratinocytes assessed as decrease in cell viability by measuring ratio of IC50 in presence of UV to IC50 in absence of UV after 30 mins by neutral red dye based assay

[3] = Photocytotoxicity against human neonatal keratinocytes assessed as decrease in cell viability preincubated for 30 mins followed by 5 J/cm2 UV light irradiation for 15 mins measured after 24 hrs by neutral red dye based assay; format: toxicity; conditions: neonatal keratinocyte

Row | Compound | IC50 [1] | IC50 [2] | logD (physchem) | selectivity ratio at 0.5 h (in vitro) | Activity [3]
1 | O=C(O)c1ccc(-n2nc(Oc3c(Cl)cccc3Cl)c3ccccc32)cn1 | > 10 µM | > 10 µM | 3.7 | 30 | 
2 | O=C(O)c1cc(F)c(-n2nc(Oc3c(Cl)cccc3Cl)c3ccccc32)c(F)c1 | 0.31 µM | > 10 µM | 2.9 | 16 | 
3 | CN(C)C(=O)c1ccc2c(c1)c(S(=O)(=O)c1c(Cl)cccc1Cl)nn2-c1ccc(C(=O)O)cc1 | > 10 µM | > 10 µM | 0.9 |  | Toxic
4 | CS(=O)(=O)c1ccc2c(c1)c(Oc1c(Cl)cccc1Cl)nn2-c1ccc(C(=O)O)cc1 | > 10 µM | 4.5 µM | 1.7 | 87 | 
5 | N#Cc1ccc2c(c1)c(Oc1c(Cl)cccc1Cl)nn2-c1ccc(C(=O)O)cc1 | > 10 µM | 1.4 µM | 2.6 | 138 | 
6 | O=C(O)c1ccc(-n2nc(Sc3c(Cl)cccc3Cl)c3ccccc32)cc1 | 2.5 µM | 4.4 µM | 2.9 |  | Toxic
7 | Cc1cc(C(=O)O)ccc1-n1nc(Oc2c(Cl)cccc2Cl)c2ccccc21 | 3.6 µM | 6.2 µM | 3 | 41 | 
8 | Cc1ccc([C@@H](NC(=O)Cc2ccc3oc([C@@H](O)c4c(C)noc4C)cc3c2)c2ccccc2)c(C)c1 | 0.044 µM | > 10 µM | 4.7 |  | 
9 | O=C(O)[C@H]1CC[C@H](n2nc(Oc3c(Cl)cccc3Cl)c3ccccc32)CC1 | > 10 µM | > 10 µM | 3.1 | 41 | 
10 | CN(CCO)C(=O)c1ccc2c(c1)c(Sc1c(Cl)cccc1Cl)nn2-c1ccc(C(=O)O)cc1 | > 10 µM | > 10 µM | 0.8 |  | 
11 | CN(C)C(=O)c1ccc2c(c1)c(Sc1ccccc1)nn2-c1ccc(C(=O)O)cc1 | > 10 µM | 3.5 µM | 1 |  | 
12 | CN(Cc1ccccc1)C(=O)c1ccc2c(c1)c(Sc1c(Cl)cccc1Cl)nn2-c1ccc(C(=O)O)cc1 | > 10 µM | > 10 µM | 2.9 |  | 
13 | O=C(O)c1ccc(-n2nc(Oc3c(Cl)cccc3Cl)c3cccnc32)cc1 | 1.2 µM | 3.8 µM | 2.3 | 190 | 
14 | O=C(O)c1ccc(-n2nc(Oc3c(Cl)cccc3Cl)c3ccccc32)c(F)c1 | 0.24 µM | > 10 µM | 2.8 | 32 | 
15 | CN(C)C(=O)c1ccc2c(c1)c(Oc1c(Cl)cccc1Cl)nn2-c1ccc(C(=O)O)cc1 | 0.3 µM | > 10 µM | 1.5 |  | 
16 | CN(C)C(=O)c1ccc2c(c1)c(Sc1c(F)cccc1Cl)nn2-c1ccc(C(=O)O)cc1 | 5 µM | > 10 µM | 1.4 |  | Toxic
17 | CCN(C)C(=O)c1ccc2c(c1)c(Sc1c(Cl)cccc1Cl)nn2-c1ccc(C(=O)O)cc1 | 6.5 µM | > 10 µM | 1.9 |  | 
18 | O=C(O)c1ccc(-n2nc(Sc3c(Cl)cccc3Cl)c3cc(C(=O)N4CCC4)ccc32)cc1 | 1.2 µM | 4.1 µM | 1.7 |  | 
19 | CN(C)C(=O)c1ccc2c(c1)c(Sc1cc(Cl)ccc1Cl)nn2-c1ccc(C(=O)O)cc1 | 4.3 µM | > 10 µM | 1.9 |  | 
20 | O=C(O)c1ccc(-n2nc(Oc3c(Cl)cccc3Cl)c3ccccc32)nc1 | 1.1 µM | 1.9 µM | 2.9 | 90 | 
21 | CNC(=O)c1ccc2c(c1)c(Sc1c(Cl)cccc1Cl)nn2-c1ccc(C(=O)O)cc1 | > 10 µM | 2.7 µM | 1.2 |  | 
22 | CCc1nn(C)c(CC)c1Oc1nn(-c2ccc(C(=O)O)cc2)c2ccccc12 | 4.8 µM | 9.1 µM | 1.6 | 121 | 
23 | O=C(O)c1ccc(-n2nc(Sc3c(Cl)cccc3Cl)c3cc(C(=O)N4CCCC4)ccc32)cc1 | 2.6 µM | > 10 µM | 1.9 |  | 
24 | O=C(O)[C@H]1CC[C@@H](n2nc(Oc3c(Cl)cccc3Cl)c3ccccc32)CC1 | > 10 µM | > 10 µM | 3.4 | 108 | 
25 | O=C(O)c1ccc(-n2nc(Sc3c(Cl)cccc3Cl)c3cc(C(=O)N4CC(F)(F)C4)ccc32)cc1 | 0.72 µM | > 10 µM | 2.3 |  | 

Row | Compound | IC50 [1] | IC50 [2] | logD (physchem) | selectivity ratio at 0.5 h (in vitro) | Activity [3]
26 | Cc1cccc2c1c(Oc1c(Cl)cccc1Cl)nn2-c1ccc(C(=O)O)cc1 | 0.82 µM | 1.1 µM | 3.6 | 19 | 
27 | O=C(O)c1ccc(-n2nc(Oc3c(Cl)cccc3Cl)c3ccccc32)cc1 | 0.14 µM | 1.4 µM | 2.8 | > 62 | 
28 | O=C(O)c1ccc(-n2nc(Nc3c(Cl)cccc3Cl)c3ccccc32)cc1 | 2.5 µM | > 10 µM | 1.9 |  | 
29 | CN(c1c(Cl)cccc1Cl)c1nn(-c2ccc(C(=O)O)cc2)c2ccccc12 | > 10 µM |  | 2.6 |  | 
30 | O=C(O)c1ccc(-n2nc(Oc3c(Cl)cccc3Cl)c3cccc(F)c32)cc1 | 0.088 µM | 7.6 µM | 2.8 | 30 | 
31 | CN(C)C(=O)c1ccc2c(c1)c(Sc1cccc(Cl)c1Cl)nn2-c1ccc(C(=O)O)cc1 | 5.9 µM | > 10 µM | 2.1 |  | Toxic
32 | CN(C)C(=O)c1ccc2c(c1)c(Sc1c(Cl)cccc1Cl)nn2-c1ccc(C(=O)O)cc1 | 0.59 µM | > 10 µM | 1.6 |  | Toxic
33 | O=C(O)c1ccc(-n2nc(S(=O)(=O)c3c(Cl)cccc3Cl)c3ccccc32)cc1 | 4.8 µM | 8.4 µM | 1.8 |  | 
34 | Cc1ccccc1Sc1nn(-c2ccc(C(=O)O)cc2)c2ccc(C(=O)N(C)C)cc12 | > 10 µM | > 10 µM | 1.4 |  | 
35 | CN(C)C(=O)c1ccc2c(c1)c(Sc1ccc(Cl)cc1Cl)nn2-c1ccc(C(=O)O)cc1 | > 10 µM | > 10 µM | 2.2 |  | Toxic
36 | CN1CCN(C(=O)c2ccc3c(c2)c(Sc2c(Cl)cccc2Cl)nn3-c2ccc(C(=O)O)cc2)CC1 | 9.2 µM | 7.7 µM | 1 |  | 
37 | O=C(O)c1ccc(-n2nc([S+]([O-])c3c(Cl)cccc3Cl)c3ccccc32)cc1 (stereo unspecified) | 6.2 µM | 5.6 µM | 1.2 |  | 
38 | CN(C)C(=O)c1ccc2c(c1)c([S+]([O-])c1c(Cl)cccc1Cl)nn2-c1ccc(C(=O)O)cc1 (stereo unspecified) | > 10 µM | > 10 µM | 0.4 |  | Toxic
39 | CN(C)C(=O)c1ccc2c(Oc3c(Cl)cccc3Cl)nn(-c3ccc(C(=O)O)cc3)c2c1 | > 10 µM | > 10 µM | 1.8 | 18 | 
40 | O=C(O)c1ccc(-n2nc(Sc3c(Cl)cccc3Cl)c3cc(C(=O)N4CCOCC4)ccc32)cc1 | 6 µM | 4.2 µM | 1.5 |  | 
41 | CN(C)C(=O)c1ccc2c(-c3ccc(C(=O)O)cc3)nn(C(=O)c3c(Cl)cccc3Cl)c2c1 | 0.054 µM | > 10 µM | 1.3 |  | 
42 | CN(C)C(=O)c1ccc2c(c1)c(Nc1c(Cl)cccc1Cl)nn2-c1ccc(C(=O)O)cc1 | 3.6 µM | > 10 µM | 0.9 |  | 
43 | O=C(O)c1ccc(-n2nc(Oc3c(Cl)cccc3Cl)c3c(F)cccc32)cc1 | 0.26 µM | 0.8 µM | 2.8 | > 90 | 
44 | Cc1cccc2c(Oc3c(Cl)cccc3Cl)nn(-c3ccc(C(=O)O)cc3)c12 | > 10 µM | > 10 µM | 2.6 |  | 
45 | O=C(O)c1ccc(-n2nc(Oc3c(Cl)cccc3Cl)c3ncccc32)cc1 | 2.1 µM | 6.8 µM | 1.3 | 11 | 
46 | Clc1cccc(Cl)c1Oc1n[nH]c2ccccc12 | > 10 µM | 5.7 µM | 4.9 | 1.6 | 
47 | Cc1cc(C)c(Sc2nn(-c3ccc(C(=O)O)cc3)c3ccc(C(=O)N(C)C)cc23)c(C)c1 | 2.7 µM | > 10 µM | 2.1 |  | 
48 | CCS(=O)(=O)c1ccc(CC(=O)Nc2nc(-c3cccc(Cl)c3)c(C(=O)c3ccccc3Cl)s2)cc1 | 0.08 µM | > 10 µM | 5.2 |  | 
49 | O=C(O)c1ccc(-n2nc(Cc3c(Cl)cccc3Cl)c3ccccc32)cc1 | 1.8 µM | 6.8 µM | 2.8 |  | 

— ChEMBL document CHEMBL3867469, “Discovery of phenoxyindazoles and phenylthioindazoles as RORγ inverse agonists” (Bioorg Med Chem Lett, 2016)
